Data on one compound can be found in PMC4955970, “Stable, synthetic analogs of diadenosine tetraphosphate inhibit rat and human P2X3 receptors and inflammatory pain” (Molecular Pain, 2016).

What all share (type): cell-based
In experiment [1] the target is T1, native P2X3Rs in TG neurons (Rattus norvegicus, UniProt P49654).
T1 construct: endogenous in cells; host or cells: cultured rat trigeminal ganglion (TG) or dorsal root ganglion (DRG) neurons
T1 sequence (P49654 1-397): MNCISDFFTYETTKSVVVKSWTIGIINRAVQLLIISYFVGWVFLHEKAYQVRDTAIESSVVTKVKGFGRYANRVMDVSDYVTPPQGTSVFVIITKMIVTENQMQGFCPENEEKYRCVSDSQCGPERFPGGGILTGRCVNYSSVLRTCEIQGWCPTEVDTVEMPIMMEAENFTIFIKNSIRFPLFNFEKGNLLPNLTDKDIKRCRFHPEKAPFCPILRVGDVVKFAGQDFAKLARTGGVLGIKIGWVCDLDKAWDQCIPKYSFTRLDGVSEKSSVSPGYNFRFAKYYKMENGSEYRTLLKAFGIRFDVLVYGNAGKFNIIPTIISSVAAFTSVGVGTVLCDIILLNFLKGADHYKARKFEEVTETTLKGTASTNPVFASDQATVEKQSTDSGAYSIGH
Description: Whole-cell recording of α,β-meATP currents in cultured trigeminal ganglion (TG) neurons. The note with it: read-out: inhibition of peak currents in TG neurons. Here is the method: (§1) Rat trigeminal, nodose, or dorsal root ganglion (TG, NG, and DRG, respectivley) neurons in culture were prepared as described previously.[46],[47] Neurons were plated on poly-L-lysine (0.2 mg/ml)-coated Petri dishes and cultured for one to two days under an atmosphere containing 5% CO2. Cells were used within two days of plating when they lacked processes. HEK293T cells were prepared as reported previously[32],[48] and transfected with rat or human full-length P2X3 cDNA subcloned into pIRES2-EGFP (Clontech, Mountain View, CA, USA).
(§2) TG, NG, DRG, or HEK cells were recorded in the whole-cell configuration while being continuously superfused (at 2 ml/min) with control solution containing (in mM): 152 NaCl, 5 KCl, 1 MgCl2, 2 CaCl2, 10 glucose, and 10 HEPES; pH was adjusted to 7.4 with NaOH and osmolarity was adjusted to 320 mOsM with glucose. […] Responses to selective P2X3R agonist α,β-methylene-ATP (α,β-meATP; resistant to ectoATPase hydrolysis, Sigma-Aldrich) were measured using an EPC-9 amplifier operated by HEKA Patch Master software (HEKA Electronik, Germany). Cells were voltage-clamped at −70 mV. In most cells, series resistance was compensated by 80%. To determine EC50 values, dose-response curves were constructed for α,β-meATP by administering different agonist doses same cells and fitting data to a logistic equation (Origin 8.0, Microcal, Northampton, MA). […]

Experiment [2] has as its target T2, native P2X3Rs in TG neurons (Rattus norvegicus, UniProt P49654).
T2 construct: endogenous in cells; host or cells: cultured rat trigeminal ganglion (TG) or dorsal root ganglion (DRG) neurons
T2 sequence (P49654 1-397): T1 sequence (P49654 1-397)
T2 sequence (P49653 1-472 partner): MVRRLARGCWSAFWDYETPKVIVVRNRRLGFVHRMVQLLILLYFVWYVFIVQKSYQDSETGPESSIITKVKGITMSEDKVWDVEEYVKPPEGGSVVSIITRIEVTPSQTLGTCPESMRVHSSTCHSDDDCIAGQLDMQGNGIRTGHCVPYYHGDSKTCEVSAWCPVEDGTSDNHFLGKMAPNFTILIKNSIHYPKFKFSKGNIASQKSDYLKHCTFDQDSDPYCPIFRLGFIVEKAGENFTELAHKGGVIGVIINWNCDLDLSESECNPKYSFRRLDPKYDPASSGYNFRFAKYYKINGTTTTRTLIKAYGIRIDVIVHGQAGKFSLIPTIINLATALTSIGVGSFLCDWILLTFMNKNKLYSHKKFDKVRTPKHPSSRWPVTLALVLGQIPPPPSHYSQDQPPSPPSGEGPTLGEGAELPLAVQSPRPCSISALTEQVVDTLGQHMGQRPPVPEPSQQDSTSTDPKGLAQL
The experiment is described as above. The note with it: read-out: inhibition of sustained residual component in TG neurons. Here is the method: as §1, §2

Experiment [3] concerns the target T3, native P2X3Rs in DRG neurons (Rattus norvegicus, UniProt P49654).
T3 construct: effects of AppNHppA on native P2X3Rs in TG, DRG, and NG neurons were investigated; endogenous in cells; host or cells: cultured rat trigeminal ganglion (TG) or dorsal root ganglion (DRG) neurons
T3 sequence (P49654 1-397): T1 sequence (P49654 1-397)
Description: Whole-cell recording of α,β-meATP currents in cultured dorsal root ganglion (DRG) neurons. The note with it: DRG neuron, read-out: inhibition of peak currents in DRG neurons. Here is the method:
as §1, §2

In experiment [4] the target is T4, native P2X3Rs in DRG neurons (Rattus norvegicus, UniProt P49654).
T4 construct: effects of AppNHppA on native P2X3Rs in TG, DRG, and NG neurons were investigated; endogenous in cells; host or cells: cultured rat trigeminal ganglion (TG) or dorsal root ganglion (DRG) neurons
T4 sequence (P49654 1-397): T1 sequence (P49654 1-397)
T4 sequence (P49653 1-472 partner): T2 sequence (P49653 1-472 partner)
The description is as above. The note with it: DRG neuron, read-out: inhibition of sustained residual component in DRG neurons. As to the method:
as §1, §2

Experiment [5] has as its target T5, rat P2X7 receptors (Rattus norvegicus, UniProt Q64663).
T5 construct: expressed in transfected cells; host or cells: HEK293
T5 sequence (Q64663 1-595): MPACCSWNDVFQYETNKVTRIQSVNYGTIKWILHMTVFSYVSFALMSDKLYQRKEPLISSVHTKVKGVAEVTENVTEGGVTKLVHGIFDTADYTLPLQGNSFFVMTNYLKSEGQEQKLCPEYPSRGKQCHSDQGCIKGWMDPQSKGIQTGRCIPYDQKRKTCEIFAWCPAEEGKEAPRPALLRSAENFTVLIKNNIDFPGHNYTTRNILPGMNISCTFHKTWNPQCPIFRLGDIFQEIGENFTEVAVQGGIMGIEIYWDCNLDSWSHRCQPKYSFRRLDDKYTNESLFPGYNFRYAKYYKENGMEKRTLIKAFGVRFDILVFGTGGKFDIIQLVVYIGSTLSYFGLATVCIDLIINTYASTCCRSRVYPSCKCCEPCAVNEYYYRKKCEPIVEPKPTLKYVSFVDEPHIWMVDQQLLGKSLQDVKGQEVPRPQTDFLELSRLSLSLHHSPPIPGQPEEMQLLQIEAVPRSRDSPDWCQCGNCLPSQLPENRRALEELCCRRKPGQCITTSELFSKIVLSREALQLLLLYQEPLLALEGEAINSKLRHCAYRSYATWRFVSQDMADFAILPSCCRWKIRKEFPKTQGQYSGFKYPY
Description: Whole-cell patch clamp on HEK293 cells expressing rat P2X7 receptors (ATP-induced currents). The note with it: 1 µM; 10 µM ATP every 2 min. On the technique in general: The patch-clamp technique gives a direct electrical read-out from membranes.

Entries after “also recorded” stand apart in the source; their conditions may differ. Where two headings read alike, the source gives them in different places.

For the compound `Nc1ncnc2c1ncn2[C@@H]1O[C@H](COP(=O)(O)OP(=O)(O)NP(=O)(O)OP(=O)(O)OC[C@H]2O[C@@H](n3cnc4c(N)ncnc43)[C@H](O)[C@@H]2O)[C@@H](O)[C@H]1O` [AppNHppA, diadenosine 5′,5′′′-P^1,P^4-(β,γ-imido)tetraphosphate], the inhibition (in general, the relative decrease from the control value, in per cent) at 1 µM in experiment [1] was determined as 80.3 ± 4.4%; in experiment [2] it was 15 ± 6%; in experiment [3], 79.2 ± 5.6%; in experiment [4] it was 18 ± 6%. In addition, in experiment [5], the “HAD or partial agonism effect on P2X7R-mediated currents” value is recorded as “did not produce any HAD or partial agonism effects; also recorded: does not inhibit”.
